Several values for one entry are separate records, joined by “and”; a condition that tells them apart may be missing. Equal entries are not always repeated. Where two headings read alike, the source gives them in different places.
Experiment: Phase 1 multiple ascending dose (Part B) pharmacokinetics after low-fat meal
Format: in vivo, human
Settings: for Tmax: median; for AUC: read-out: AUC0-τ; for CL renal: urine and plasma
Method: In Part B, 24 subjects were studied in 3 groups (Groups B1 to B3), with each group consisting of 8 subjects (6 received Compound I and 2 received placebo). The dose, dosing frequency, duration, and dietary state for Part B were determined based on review of available PK, safety, and tolerability data from Parts A and B.
All doses in Part B were administered following administration of a low-fat meal. In Groups B1 and B3, Compound I (200 mg for Group B1, 275 mg for Group B3) or placebo was administered twice daily (BID) on Days 1 to 6 and once on the morning of Day 7. In Group B2, subjects received QD dosing with 525 mg Compound I or placebo on Days 1 to 7.
In Part B, each subject participated in 1 treatment period. Subjects resided at the CRU from Day −1 (the day before dosing) until the morning of Day 10 (72 hours after the final dose on Day 7). All subjects returned for a Follow-up visit between 5 to 14 days after their final dose.
In Part B, all doses were administered after a low-fat meal. On Day 1 and Day 7 (days with post-dose PK sampling), subjects started a low-fat breakfast 30 minutes prior to dosing and were given 15 minutes to complete their meal; dosing occurred approximately 15 minutes after completion of breakfast. On dosing Days 2 through 6, subjects were to complete their breakfast within an hour prior to dosing. For the evening doses, subjects were given a standard meal and completed their meal between 1 and 2 hours prior to dosing.

[1] = 200 mg BID (B1), Day 1, low-fat meal
[2] = 200 mg BID (B1), Day 7, low-fat meal
[3] = 275 mg BID (B3), Day 1, low-fat meal
[4] = 275 mg BID (B3), Day 7, low-fat meal
[5] = 525 mg QD (B2), Day 1, low-fat meal
[6] = 525 mg QD (B2), Day 7, low-fat meal
[7] = human, plasma, oral, 200 mg, 200 mg BID (B1), Day 1, low-fat meal
[8] = human, plasma, oral, 200 mg, 200 mg BID (B1), Day 7, low-fat meal
[9] = human, plasma, oral, 275 mg, 275 mg BID (B3), Day 1, low-fat meal
[10] = human, plasma, oral, 275 mg, 275 mg BID (B3), Day 7, low-fat meal
[11] = human, plasma, oral, 525 mg, 525 mg QD (B2), Day 1, low-fat meal
[12] = human, plasma, oral, 525 mg, 525 mg QD (B2), Day 7, low-fat meal
[13] = human, plasma, oral, 200 mg BID (B1), Day 7, low-fat meal
[14] = human, plasma, oral, 275 mg BID (B3), Day 7, low-fat meal
[15] = human, plasma, oral, 525 mg QD (B2), Day 7, low-fat meal

Cn1cc(-c2cn(-c3ccc(OC(F)(F)F)cc3)c(=O)c3ncn(C)c23)cn1 [Compound I]
AUC0-τ(norm) [1]: 11300 hr*ng/mL/(mg/kg) | Ae0-12 [1]: 105 mg | Cmax (norm) [1]: 1970 ng/mL/(mg/kg) | fe0-12 [1]: 52.5% | AUC0-τ(norm) [2]: 12600 hr*ng/mL/(mg/kg) | Ae0-12 [2]: 142 mg | CL/F [2]: 85.9 mL/min | CL/F(norm) [2]: 1.32 (mL/min)/kg | Cmax (norm) [2]: 1970 ng/mL/(mg/kg) | RAAUC (accumulation ratio based on AUC0-τ) [2]: 1.1 and 1.11 | fe0-12 [2]: 71.2% | λZ [2]: 0.142 h⁻¹ | Mean pre-dose (trough) Compound I concentration (200 mg BID, Day 7): 1680 ng/mL | AUC0-τ(norm) [3]: 9560 hr*ng/mL/(mg/kg) | Ae0-12 [3]: 162 mg | Cmax (norm) [3]: 1540 ng/mL/(mg/kg) | fe0-12 [3]: 58.9% | AUC0-τ(norm) [4]: 14300 hr*ng/mL/(mg/kg) | Ae0-12 [4]: 190 mg | CL/F [4]: 81.1 mL/min | CL/F(norm) [4]: 1.16 (mL/min)/kg | Cmax (norm) [4]: 1900 ng/mL/(mg/kg) | RAAUC (accumulation ratio based on AUC0-τ) [4]: 1.5 | fe0-12 [4]: 69.1% | λZ [4]: 0.123 h⁻¹ | Fold increase in geometric mean Cmax (275 mg BID vs 200 mg BID (1.4-fold increase in dose)): 1.2 fold | Mean pre-dose (trough) Compound I concentration (275 mg BID, Day 7): 3260 ng/mL | AUC0-τ(norm) [5]: 10500 hr*ng/mL/(mg/kg) | Ae0-12 [5]: 171 mg | Ae0-24 [5]: 242 mg | Cmax (norm) [5]: 1140 ng/mL/(mg/kg) | fe0-12 [5]: 32.6% | fe0-24 [5]: 46.1% | AUC0-τ(norm) [6]: 13100 hr*ng/mL/(mg/kg) | Ae0-12 [6]: 185 mg | Ae0-24 [6]: 284 mg | CL/F [6]: 89.4 mL/min | CL/F(norm) [6]: 1.27 (mL/min)/kg | Cmax (norm) [6]: 1260 ng/mL/(mg/kg) | RAAUC (accumulation ratio based on AUC0-τ) [6]: 1.3 and 1.25 | fe0-12 [6]: 35.3% | fe0-24 [6]: 54.0% | λZ [6]: 0.0544 h⁻¹ | Fold increase in geometric mean AUC0-∞ (525 mg QD vs 200 mg BID (2.6-fold increase in dose)): 2.5 fold | Mean pre-dose (trough) Compound I concentration (525 mg QD, Day 7): 897 ng/mL | Time to steady-state plasma concentrations (200 and 275 mg BID and 525 mg QD): ≤ 2 days | Tmax at 1 day (human, plasma, oral, 200 mg BID, 275 mg BID, 525 mg QD, Day 1, read-out: Median tmax, range across regimens): 2.3 to 3.5 h | Tmax at 7 day (human, plasma, oral, 200 mg BID, 275 mg BID, 525 mg QD, Day 7, read-out: Median tmax, range across regimens): 2.8 to 4 h | Cmax [7]: 6080 ng/mL | Tmax [7]: 3 h | AUC [7]: 34900 ng·h/mL | Cmax [8]: 6060 ng/mL | Tmax [8]: 4 h | AUC [8]: 38800 ng·h/mL | Cmax [9]: 6070 ng/mL | Tmax [9]: 2.28 h | AUC [9]: 37700 ng·h/mL | Cmax [10]: 7500 ng/mL | Tmax [10]: 2.75 h | AUC [10]: 56500 ng·h/mL | Cmax [11]: 8510 ng/mL | Tmax [11]: 3.5 h | AUC [11]: 78100 ng·h/mL | Cmax [12]: 9440 ng/mL | Tmax [12]: 3.53 h | AUC [12]: 97800 ng·h/mL | half-life [13]: 4.89 h | half-life at 7 day [13]: 4.9 h | Vd/F (human, plasma, oral, 200 mg BID (B1), Day 7, low-fat meal, read-out: Vz/F): 36.1 L | Vd/F (human, plasma, oral, 200 mg BID (B1), Day 7, low-fat meal, read-out: Vz/F(norm)): 0.576 L/kg | half-life [14]: 5.64 h | half-life at 7 day [14]: 5.6 h | Vd/F (human, plasma, oral, 275 mg BID (B3), Day 7, low-fat meal, read-out: Vz/F): 39.6 L | Vd/F (human, plasma, oral, 275 mg BID (B3), Day 7, low-fat meal, read-out: Vz/F(norm)): 0.568 L/kg | half-life [15]: 6.25 h | half-life at 7 day [15]: 6.3 h | Vd/F (human, plasma, oral, 525 mg QD (B2), Day 7, low-fat meal, read-out: Vz/F): 98.6 L | Vd/F (human, plasma, oral, 525 mg QD (B2), Day 7, low-fat meal, read-out: Vz/F(norm)): 1.4 L/kg | CL renal (human, oral, 200 mg, 200 mg BID (B1), Day 1, low-fat meal): 50.2 mL/min | CL renal (human, oral, 200 mg, 200 mg BID (B1), Day 7, low-fat meal): 61.2 mL/min | CL renal (human, oral, 275 mg, 275 mg BID (B3), Day 1, low-fat meal): 71.6 mL/min | CL renal (human, oral, 275 mg, 275 mg BID (B3), Day 7, low-fat meal): 56.1 mL/min | CL renal (human, oral, 525 mg, 525 mg QD (B2), Day 1, low-fat meal): 51.7 mL/min | CL renal (human, oral, 525 mg, 525 mg QD (B2), Day 7, low-fat meal): 48.3 mL/min
